Test results reported in the supplement of paper PMC6045584.
± gives the standard deviation of the averaged measurements.

Key:
[1] = compound: CCN(CC)CCCCNc1ncc2cc(-c3cc(OC)cc(OC)c3)c(NC(=O)NC(C)(C)C)nc2n1; experiment: surviving fraction relative to DMSO-only wells; higher = less growth inhibition; conditions: exposure time: 5 days
Method in brief: (§1)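 Luminescence normalised to the median of DMSO-only wells defines surviving fraction, with viability read by CellTiter-Glo. Signal was recorded after 10 minutes at room temperature, once log-phase tumour cell lines seeded at 250–500 cells per well in 384-well plates had spent 24 hours settling and then five days under continuous exposure to inhibitors at 0.5, 1, 5, 10, 50, 100, 500 and 1000 nM.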

NUTLIN3 = compound: COc1ccc(C2=N[C@@H](c3ccc(Cl)cc3)[C@@H](c3ccc(Cl)cc3)N2C(=O)N2CCNC(=O)C2)c(OC(C)C)c1 [NUTLIN3]; experiment: as above; conditions: exposure time: 5 days
Method in brief: as §1

Test System | surviving fraction ([1]; 0.5 nM) | surviving fraction ([1]; 1 nM) | surviving fraction ([1]; 5 nM) | surviving fraction ([1]; 10 nM) | surviving fraction ([1]; 50 nM) | surviving fraction ([1]; 100 nM) | surviving fraction ([1]; 500 nM) | surviving fraction ([1]; 1000 nM) | surviving fraction (NUTLIN3; 0.5 nM) | surviving fraction (NUTLIN3; 1 nM) | surviving fraction (NUTLIN3; 5 nM) | surviving fraction (NUTLIN3; 10 nM) | surviving fraction (NUTLIN3; 50 nM) | surviving fraction (NUTLIN3; 100 nM) | surviving fraction (NUTLIN3; 500 nM) | surviving fraction (NUTLIN3; 1000 nM)
HUO3N1 BONE | 0.996 ± 0.074 | 0.993 ± 0.047 | 1.04 ± 0.052 | 0.999 ± 0.043 | 0.9503 ± 0.0051 | 0.906 ± 0.055 | 0.727 ± 0.04 | 0.69 ± 0.013 | 1.07 ± 0.046 | 0.988 ± 0.032 | 1.039 ± 0.0087 | 1 ± 0.034 | 1.09 ± 0.032 | 1.03 ± 0.032 | 1.01 ± 0.068 | 1.04 ± 0.033
JIMT1 BREAST | 0.964 ± 0.028 | 0.951 ± 0.04 | 0.967 ± 0.054 | 1.01 ± 0.037 | 1.02 ± 0.011 | 1.03 ± 0.042 | 0.989 ± 0.031 | 1.02 ± 0.025 | 0.985 ± 0.011 | 0.976 ± 0.018 | 1.01 ± 0.037 | 0.9965 ± 0.0076 | 1.08 ± 0.037 | 1.06 ± 0.016 | 1.06 ± 0.043 | 1.04 ± 0.018
JURKAT HAEMATOPOIETIC AND LYMPHOID TISSUE | 1.03 ± 0.042 | 1.08 ± 0.015 | 1.04 ± 0.022 | 1.055 ± 0.0052 | 1 ± 0.039 | 1.05 ± 0.02 | 1.02 ± 0.021 | 1.07 ± 0.021 | 1.11 ± 0.031 | 1.1 ± 0.015 | 1.07 ± 0.015 | 1.06 ± 0.017 | 1.05 ± 0.078 | 1.03 ± 0.012 | 1.02 ± 0.022 | 1.03 ± 0.013
KPD BONE | 0.978 ± 0.07 | 1.02 ± 0.033 | 1 ± 0.049 | 1.01 ± 0.12 | 1.02 ± 0.039 | 0.97 ± 0.058 | 0.925 ± 0.025 | 0.884 ± 0.058 | 0.968 ± 0.042 | 0.966 ± 0.049 | 1.05 ± 0.064 | 0.987 ± 0.023 | 1.03 ± 0.061 | 1.01 ± 0.098 | 1.01 ± 0.017 | 0.962 ± 0.075
LM7 BONE | 0.989 ± 0.039 | 0.966 ± 0.075 | 1.08 ± 0.13 | 1.07 ± 0.069 | 1.01 ± 0.043 | 1.13 ± 0.24 | 0.869 ± 0.075 | 0.739 ± 0.11 | 0.99 ± 0.075 | 0.977 ± 0.082 | 1.05 ± 0.025 | 1.07 ± 0.14 | 0.987 ± 0.065 | 1.08 ± 0.046 | 1.03 ± 0.1 | 0.994 ± 0.05
